The source of these data is patent US7501281B2, “Compositions, methods and kits related to thrombin, Notch signaling and stamatogenesis and growth of stem cells” (Maine Medical Center Research Institute, priority 2003, dated 2009).

Marks after values point to notes of the source that are not given here.

The test system of assay [1] is secondary NCSC populations. Briefly: Dosage sensitivity of secondary NCSC to instructive differentiation factors BMP2 and sDl1. Format: cell-based. Particulars: clones expanded 18 days; 5 μM TRAP, sJ1 or thrombin. The protocol: Secondary NCSC population were generated from founder NCSC clones after 13 days of growth in Morrison media supplemented either with 7.5 nM sJ1 (▴-▴), 5 μg/ml α-thrombin (▾-▾), 5 μM TRAP (♦-♦) or no additive (control; ▪-▪) and compared to freshly isolated populations of NCSC (●-●). […] Clonogenic differentiation assays of secondary P75^+/P0^− NCSC populations were assayed in Morrison media as a function of the concentration of the neurogenic differentiation factor, BMP2, and the generation of Neuron-only clones was assessed 14 days after the addition of BMP2. […] Clonogenic differentiation assays of secondary P75^+/P0^− NCSC were preformed in Morrison media supplemented with increasing concentrations of the gliogenic differentiation factor, sDl1 and the generation of Glial-only clones was assessed 14 days after the addition of sDl1. […]
It is well established that quantitative changes in the dosage sensitivity of NCSC populations occur in vitro and in vivo during NCSC self-renewal (Kubu et al., 2002, Dev. Biol. 244:199-214; White et al., 1999, Development 126:4351-4363; White et al., 2001, Neuron 29:57-71). […] The dosage sensitivity of secondary NCSC populations to both BMP2 and sDl1 was evaluated using the clonogenic differentiation assay to quantitate the production of neuron-only clones (BMP2) and glial-only clones (sDl1) after day 18.

Assay [2] concerns mouse NSCS populations. Briefly: Clonogenic differentiation assay of NCSC, pre-incubation with Notch ligand then BMP2 challenge. Format: cell-based. The protocol: Clonogenic assays were performed as described (Stemple et al., 1992, Cell 71:973-985). Briefly, populations of murine NCSC were plated at a clonal density and maintained for a maximum of 14 days in Morrison media supplemented with 15% chick embryo extract (Morrison et al., 1999, Cell 96:737-749). The resulting clones were fixed in an acetic acid:ethanol solution (2:1) and stained with antibodies against peripherin (Chemicon) to detect neurons, smooth muscle actin (Sigma) to detect myofibroblasts, and GFAP (Chemicon) to detect Schwann cells. Clones were scored based on the appearance of just one phenotypic representative. The number and percentage of clones containing neurons only (N), Schwann cells only (S), myofibroblasts only (M), N+S, N+M, N+S+M, and S+M were scored at day 14 unless otherwise stated. The production of each representative phenotype in each individual clone was also scored to complement the clonal population assay.
NCSC Retain Neurogenic capacity in the presence of sJ1. A clonogenic differentiation assay was performed using mouse NSCS populations as described previously (Kubu et al., 2002, Dev. Biol. 244:199-214; Stemple et al., 1992, Cell 71:973-985). The cells were incubated in Stemple media (Stemple et al., 1992) with or without 5 nM sDl1 or 7.5 nM sJ I for the time periods set forth in Table 1. After the initial incubation period, cells were washed and neuronal differentiation was challenged in the presence of 1 ng/ml BMP2 for an additional seven days. The resulting clones were fixed and stained for detection of neural crest markers. The data disclosed in Table 1 is presented as the percentage of glial-only, neuron-only, and neuron colonies containing either smooth muscle or glial markers as the mean±standard deviation (SD) of three experiments originating from three independent cell isolations. Note the retention of neurogenic differentiation capacity in sJ1-treated cells (*=p<0.01) compared with the sDl1-treated cells.

For assay [3], the system named is NCSC populations. The assay can be described thus: GFAP immunoreactivity as onset of glial-specific clonogenic differentiation. Format: cell-based, murine. As for the experimental part: FIG. 12A depicts an RT-PCR analysis of FGF1.A mRNA expression. Briefly, populations of murine NCSC were treated for 48 hours in Morrison media supplemented with either 7.5 nM sJ1, 5.0 nM sDl1, 10 μg/ml of α-thrombin or 5 μg/ml TRAP, and the steady-state levels of the FGF1.A mRNA were measured using RT-PCR as described elsewhere herein. […] Clonogenic differentiation assays of murine NCSC populations were assessed by maintaining the cells in Morrison media supplemented with increasing concentrations of either sJ1 or sDl1. […] Clonogenic differentiation assays of NCSC populations was assessed by maintaining the cells in Morrison media supplemented with either 7.5 nM sJ1 (▪-▪) or 5 nM sDl1 (▴-▴). The onset of gliogenic differentiation was determined by GFAP immunohistochemistry. […]
Since sJ1 enabled the retention of NCSC neurogenic potential over a 7 day period of exposure (Table 1), glial fibrillary acidic protein (GFAP) immunoreactivity was utilized as a measure of the onset of glial-specific clonogenic differentiation (Morrison et al., 1999, Cell 96:737-749; Stemple et al., 1992, Cell 71:973-985). […] As previously reported (Morrison et al., 2000, Cell 101:499-510), after 48 hours of exposure to sDl1, GFAP immunoreactive cells were detected in NCSC populations (FIG. 12C). […]

Where [4] appears, read: 24 hrs with 5 nM sDl1 or 7.5 nM sJ1, then 1 ng/ml BMP2 for seven days, percentage of colonies, mean±SD.
Where [5] appears, read: 72 hrs with 7.5 nM sJ1, then 1 ng/ml BMP2 for seven days.
Setting [6] is: 120 hrs with 7.5 nM sJ1, then 1 ng/ml BMP2 for seven days.
[7] abbreviates: 168 hrs with 7.5 nM sJ1, then 1 ng/ml BMP2 for seven days.

On to Thrombin, for which the “shift in sensitivity to instructive differentiation signals” value in assay [1] is “not observed”.
“sJ1: Soluble Jagged1, amino acid residues from about 1 to 1067 (SEQ ID NO:3) of full-length Jagged1”: the Glial-Only in assay [2] (setting [4]) is reported as 0%; in assay [2] (setting [5]) it was 0.8 ± 1.4%*; in assay [2] (setting [6]), 5.82 ± 3.4%*; in assay [2] (setting [7]), 13.3 ± 4.5%*. The Neuron-Containing was 71.4 ± 6.2%* in assay [2] (setting [4]), 74.8 ± 16.3%* in assay [2] (setting [5]), 52.01 ± 14.1%* in assay [2] (setting [6]) and 35.03 ± 9.1% in assay [2] (setting [7]). For the same molecule, the Neuron-Only is listed as 54.4 ± 8.4%* in assay [2] (setting [4]), 42.8 ± 6.6%* in assay [2] (setting [5]), 13.43 ± 6.5%* in assay [2] (setting [6]) and 6.5 ± 1.3%* in assay [2] (setting [7]). For the same molecule, the “percentage of the colony expressing the glial-specific protein GFAP” value in assay [3] (day 7) stood at 23±5%. In addition, the “shift in sensitivity to instructive differentiation signals” value in assay [1] is given as “not observed”.

B1: sDl1: soluble non-transmembrane form of the Notch ligand Delta1 (protein)
chain: QVWSSGVFELKLQEFVNKKGLLGNRNCCRGGAGPPPCACRTFFRVCLKHYQASVSPEPPCTYGSAVTPVLGVDSFSLPDGGGADSAFSNPIRFPFGFTWPGTFSLIIEALHTDSPDDLATENPERLISRLATQRHLTVGEEWSQDLHSSGRTDLKYSYRFVCDEHYYGEGCSVFCRPRDDAFGHFTCGERGEKVCNPGWKGPYCTEPICLPGCDEQHGFCDKPGECKCRVGWQGRYCDECIRYPGCLHGTCQQPWQCNCQEGWGGLFCNQDLNYCTHHKPCKNGATCTNTGQGSYTCSCRPGYTGATCELGIDECDPSPCKNGGSCTDLENSYSCTCPPGFYGKICELSAMTCADGPCFNGGRCSDSPDGGYSCRCPVGYSGFNCEKKIDYCSSSPCSNGAKCVDLGDAYLCRCQAGFSGRHCDDNVDDCASSPCANGGTCRDGVNDFSCTCPPGYTGRNCSAPVSRCEHAPCHNGATCHERGHRYVCECARGYGGPNCQFLLPELPPGPAVVDLTEKLEGQGGPFPW
modifications: left off: small tags and cut ends
notes: soluble non-transmembrane form of the Notch ligand Delta1
In assay [2] (setting [4]), B1 yielded a Glial-Only of 57.8 ± 9.9%, a Neuron-Containing of 7.0 ± 5.7% and a Neuron-Only of 0%. Also, the “time of exposure at which GFAP immunoreactive cells were detected” value in assay [3] amounted to 48 h.
